The target of test [1] is Adenosine receptors; A1 & A3 (Homo sapiens) (UniProt P30542+P0DMS8). The test can be described thus: Ratio of binding affinity for human adenosine A1 and A3 receptors expressed in HEK293 cells. The test is classed as cell-based.
The target in test [2] is T1, Adenosine receptor A3 (Homo sapiens, UniProt P0DMS8).
T1 sequence (P0DMS8 whole entry): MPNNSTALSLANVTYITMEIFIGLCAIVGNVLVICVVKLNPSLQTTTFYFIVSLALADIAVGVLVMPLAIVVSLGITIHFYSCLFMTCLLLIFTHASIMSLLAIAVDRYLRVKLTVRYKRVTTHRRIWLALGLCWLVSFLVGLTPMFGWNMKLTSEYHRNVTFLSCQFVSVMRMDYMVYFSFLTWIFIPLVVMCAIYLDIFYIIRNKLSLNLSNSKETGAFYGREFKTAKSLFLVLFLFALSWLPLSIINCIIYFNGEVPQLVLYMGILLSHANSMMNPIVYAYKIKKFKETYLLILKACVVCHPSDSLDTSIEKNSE
The test can be described thus: Inhibitory concentration as antagonistic activity against cAMP generation inhibited by IB-MECA in CHO cell membranes transfected with human Adenosine A3 receptor. In kind it is functional, cell-based.

The target in test [3] is T2, Adenosine receptor A2a (Homo sapiens, UniProt P29274). The test can be described thus: Displacement of specific [3H]-SCH- 58261 binding at human Adenosine A2A receptor expressed in HEK293 cells. The test is classed as cell-based.
T2 sequence (P29274 whole entry): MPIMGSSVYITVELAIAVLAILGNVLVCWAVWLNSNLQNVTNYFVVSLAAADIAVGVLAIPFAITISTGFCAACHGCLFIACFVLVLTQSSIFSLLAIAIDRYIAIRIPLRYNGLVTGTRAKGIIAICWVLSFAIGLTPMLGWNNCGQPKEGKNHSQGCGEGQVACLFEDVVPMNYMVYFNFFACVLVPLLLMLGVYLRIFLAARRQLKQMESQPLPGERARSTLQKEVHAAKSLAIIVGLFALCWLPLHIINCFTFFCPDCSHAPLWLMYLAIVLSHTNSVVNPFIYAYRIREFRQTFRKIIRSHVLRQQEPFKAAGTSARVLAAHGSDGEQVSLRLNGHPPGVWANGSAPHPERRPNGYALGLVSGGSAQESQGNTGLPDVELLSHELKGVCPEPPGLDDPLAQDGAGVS
Test [4] has as its system HEK293. The test can be described thus: Ratio of binding affinity for rat adenosine A1 and human adenosine A3 receptors expressed in HEK293 cells. The test is classed as cell-based.
Test [5] concerns the target T3, Adenosine receptor A3 (Rattus norvegicus) (UniProt P28647).
T3 sequence (whole entry): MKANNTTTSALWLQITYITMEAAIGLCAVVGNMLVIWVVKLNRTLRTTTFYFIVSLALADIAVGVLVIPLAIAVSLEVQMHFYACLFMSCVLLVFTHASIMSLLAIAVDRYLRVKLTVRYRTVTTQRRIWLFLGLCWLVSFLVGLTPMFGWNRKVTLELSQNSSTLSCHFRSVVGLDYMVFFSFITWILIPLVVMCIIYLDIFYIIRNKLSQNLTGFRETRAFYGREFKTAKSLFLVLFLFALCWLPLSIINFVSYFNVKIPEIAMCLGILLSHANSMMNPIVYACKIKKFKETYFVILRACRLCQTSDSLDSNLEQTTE
In kind it is cell-based. Particulars: CHO, 10 mM.

The subject of test [6] is HEK293. The experiment in a line: Ratio of binding affinity for rat adenosine A2A of striatal membranes and human adenosine A3 receptors expressed in HEK293 cells. The test is classed as cell-based.
Test [7] concerns the target T4, Adenosine receptor A1 (Homo sapiens, UniProt P30542).
T4 sequence (P30542 whole entry): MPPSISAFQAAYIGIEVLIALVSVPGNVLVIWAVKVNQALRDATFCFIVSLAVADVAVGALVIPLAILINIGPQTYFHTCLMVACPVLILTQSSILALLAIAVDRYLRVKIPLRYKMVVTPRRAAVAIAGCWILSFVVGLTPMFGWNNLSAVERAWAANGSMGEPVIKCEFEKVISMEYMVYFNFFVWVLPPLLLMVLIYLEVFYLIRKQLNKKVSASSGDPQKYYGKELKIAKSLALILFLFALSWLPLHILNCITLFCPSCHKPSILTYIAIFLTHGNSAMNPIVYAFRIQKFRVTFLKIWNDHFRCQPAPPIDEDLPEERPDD
The test can be described thus: Displacement of [3H]DPCPX from human Adenosine A1 receptor expressed in CHO cells. In kind it is cell-based. (Displacement assays read how much labelled ligand stays bound in the presence of the test substance.)

The target of test [8] is T5, Adenosine receptor A3 (Homo sapiens) (UniProt P0DMS8).
T5 sequence (whole entry): T1 sequence (P0DMS8 whole entry)
The experiment in a line: Percent inhibition of cAMP-accumulation in CHO cells by IB-MECA at 1 uM. The test is classed as functional, cell-based.

Test [9] has as its target T5, Adenosine receptor A3 (Homo sapiens). The experiment in a line: Percent inhibition of cAMP-accumulation in CHO cells by IB-MECA at 1 uM. In kind it is functional, cell-based.
Test [10] deals with T2, Adenosine receptor A2a. The test can be described thus: Displacement of [3H]-SCH- 58261 from human Adenosine A2A receptor expressed in HEK293 cells. The test is classed as cell-based.
Test [11] addresses T5, Adenosine receptor A3 (Homo sapiens). The conditions noted are these: CHO, 1 uM.
Description: Percent inhibition of cAMP-accumulation in CHO cells expressing hA3 adenosine receptors by IB-MECA at 1 uM.
For test [12], the target named is T1, Adenosine receptor A3. The test can be described thus: Inhibitory concentration as antagonistic activity against cAMP generation inhibited by IB-MECA in CHO cell membranes transfected with human A3 receptor. In kind it is functional, cell-based.
In test [13] the target is Adenosine receptor A2a (Rattus norvegicus, UniProt P30543).
Adenosine receptor A2a (Rattus norvegicus, UniProt P30543), sequence (P30543 whole entry): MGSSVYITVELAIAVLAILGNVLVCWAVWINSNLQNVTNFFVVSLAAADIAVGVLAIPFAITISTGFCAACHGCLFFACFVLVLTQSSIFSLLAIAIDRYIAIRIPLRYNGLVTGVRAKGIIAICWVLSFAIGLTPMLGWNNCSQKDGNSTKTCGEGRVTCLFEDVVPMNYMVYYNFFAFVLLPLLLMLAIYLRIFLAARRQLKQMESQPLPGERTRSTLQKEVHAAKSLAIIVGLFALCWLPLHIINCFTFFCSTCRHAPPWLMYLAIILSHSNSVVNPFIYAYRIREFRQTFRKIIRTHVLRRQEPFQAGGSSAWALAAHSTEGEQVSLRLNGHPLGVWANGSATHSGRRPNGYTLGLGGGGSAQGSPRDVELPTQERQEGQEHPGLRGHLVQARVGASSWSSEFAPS
Description: Displacement of [3H]-SCH- 58261 from Adenosine A2A receptor in rat striatal membranes
The target in test [14] is T6, Adenosine receptor A1 (Rattus norvegicus, UniProt P25099).
T6 sequence (P25099 whole entry): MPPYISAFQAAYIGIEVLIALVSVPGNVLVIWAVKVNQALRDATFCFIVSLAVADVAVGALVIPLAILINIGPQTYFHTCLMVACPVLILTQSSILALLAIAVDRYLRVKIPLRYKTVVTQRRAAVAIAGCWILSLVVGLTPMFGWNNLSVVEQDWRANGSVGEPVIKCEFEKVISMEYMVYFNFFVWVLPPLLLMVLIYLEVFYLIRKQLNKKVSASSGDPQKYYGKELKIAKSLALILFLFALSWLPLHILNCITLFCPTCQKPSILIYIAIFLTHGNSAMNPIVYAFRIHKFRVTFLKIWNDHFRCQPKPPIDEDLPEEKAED
The test can be described thus: Displacement of [3H]DPCPX from Adenosine A1 receptor of rat brain membranes. In kind it is cell membranes, Membrane.

Test [15] addresses T5, Adenosine receptor A3 (Homo sapiens). The conditions noted are these: CHO, 1 uM. The source holds these as a separate data set.
Description: Perent inhibition of cAMP-accumulation in CHO cells expressing human Adenosine A3 receptor by IB-MECA at 1 uM.

Each structure is given as a SMILES string. pIC50, pKi: −log10 of the molar value. Some results are limits rather than exact numbers.

This note sets out measurements from ChEMBL document CHEMBL1132457 (J Med Chem, 1999).

Take `CCCn1cc2c(nc(N)n3nc(-c4ccco4)nc23)n1`: the figures for the Ratio in test [1], in test [4] and in test [6] were 0.016, 0.22 and 0.03, respectively. In addition, the pIC50 in test [2] was 7.40. The pKi in [3] is 8.59; in test [7], 8.00. In addition, the inhibition in test [5] stood at 2%.
Take `O=C(Nc1cccc(Cl)c1)Nc1nc2nn(CCCc3ccccc3)cc2c2nc(-c3ccco3)nn12`: the pKi in test [3] was 6.69; in [7], 5.82. Further, the values for the inhibition in test [8] and in test [5] were 50% and 20%, respectively. Also, the Ratio in test [4] was above 234; in test [6], 75.
Take `CCn1cc2c(nc(N)n3nc(-c4ccco4)nc23)n1`: the Ratio in test [1] came to 0.0014; in test [4], 0.03; in [6], 0.003. Also, the inhibition came out at 3% in test [9] and 1% in [5]. Also, the pKi in [3] is 8.72; in test [7], 8.30.
As for `CCCn1cc2c(nc(NC(=O)Nc3cccc(Cl)c3)n3nc(-c4ccco4)nc23)n1`, the results for the pKi in test [10], in test [13] and in [7] were 5.91, below 5.00 and 7.52, respectively. Further, the inhibition was found to be 87% in [11] and 20% in [5]. In addition, the pIC50 in test [12] was 8.28.
Consider `CCn1cc2c(nc(NC(=O)Nc3ccc(OC)cc3)n3nc(-c4ccco4)nc23)n1`, for which the inhibition in test [11] came out at 88%; in test [5], 39%. This compound showed a pIC50 in [12] of 8.19. Also, the negative-log Ki (pKi) in test [14] and in test [13] was below 5.00 throughout.
For the compound `CCCn1cc2c(nc(NC(=O)Nc3ccc(OC)cc3)n3nc(-c4ccco4)nc23)n1`, the inhibition in [15] was found to be 89%; in test [5] it was 37%.
For `COc1ccc(NC(=O)Nc2nc3nn(CCCc4ccccc4)cc3c3nc(-c4ccco4)nn23)cc1`, the values for the Ratio in test [1], in test [4] and in test [6] were 12.6, 76.4 and above 504, respectively. For the same compound, the inhibition came to 56% in test [9] and 11% in [5]. Moreover, the pKi is 5.99 in test [3] and 6.60 in test [7].
As to `Nc1nc2nn(CCCc3ccccc3)cc2c2nc(-c3ccco3)nn12`, the values for the Ratio in test [1], in test [4] and in [6] were 0.001, 0.004 and 0.0002, respectively. For the same compound, the inhibition in test [9] is 6%; in [5], 32%. In addition, the pKi in [3] is 9.74; in test [7] it was 8.52.
On to `CCn1cc2c(nc(NC(=O)Nc3cccc(Cl)c3)n3nc(-c4ccco4)nc23)n1`, for which, in [2], the pIC50 is 7.82. The figures for the inhibition in [11] and in test [5] were 71% and 36%, respectively. In addition, the results for the pKi in [3] and in test [7] were 6.73 and 6.60, respectively.
Take `Nc1nc2nn(CCc3ccccc3)cc2c2nc(-c3ccco3)nn12`: the inhibition came out at 5% in test [9] and 12% in test [5]. Besides, the figures for the pKi in test [3] and in [7] were 9.51 and 9.00, respectively.
Turning to `COc1ccc(NC(=O)Nc2nc3nn(CCc4ccccc4)cc3c3nc(-c4ccco4)nn23)cc1`, the Ratio worked out at 136 in test [1], 872 in [4] and 951 in test [6]. In addition, the inhibition was 81% in [9] and 37% in [5]. For the same compound, the pIC50 in test [12] is 7.91. Besides, the pKi in [3] is 6.91; in test [7], 6.70.
Turning to `O=C(Nc1cccc(Cl)c1)Nc1nc2nn(CCc3ccccc3)cc2c2nc(-c3ccco3)nn12`, the Ratio in test [1] turned out to be 19; in test [4], 79; in test [6], 128. In addition, the inhibition in test [9] came to 62%; in [5], 30%. Besides, the negative-log Ki (pKi) was 6.96 in [3] and 6.60 in [7].

One may read the pIC50 as −log10 of the IC50, conventionally taken in molar units. Read a low pIC50 as a high IC50. The term pKi denotes the Ki on a negative log10 scale, so that one unit is a factor of ten. For orientation: inhibition means the drop in the measured response relative to a control, in per cent.
